Key:
[1] = Clinical biochemistry markers in serum, intervention trial apoE KO mice; format: in vivo, mouse; details: Intervention (6 + 6 weeks), mean ± SEM
Source text: (§1) To assess the therapeutic effect of FAK inhibition, the following three different designs were applied: prevention (1) and therapeutic intervention (2) in apoE KO mice, and therapeutic intervention (3) in LDLr KO mice. The prevention trial consisted of 8-week concurrent treatment with the HF/HC diet following 1 week of pre-loading of the HF/HC diet (Additional file 3: Figure S2A). The therapeutic intervention trial consisted of 6- and 8-week treatment after 6- and 8-week pre-loading of the HF/HC diet in apoE KO and LDLr KO mice, respectively (Additional file 3: Figure S2B). Body weight and food intake were measured once weekly. The mice were euthanized under terminal inhalation anesthesia with isoflurane followed by blood collection from abdominal vein.
(§2) Atherosclerotic lesion area was evaluated in the aorta by en face analysis (Additional file 4: Figure S3A) and in aortic root by cross-sectional analysis (Additional file 4: Figure S3B). The aorta was subjected to Sudan IV staining, and total area of the plaque lesion (TAOL) and area of whole aorta from arch without the region of brachiocephalic artery to common iliac artery (AOWA) were measured using the Definiens imaging software. Area of lesion (%) was calculated by the following formula; Area of lesion (%) = TAOL/AOWA × 100. After en face analysis, the aorta was washed and then blotted dry, weighed, minced, and total lipid was extracted with chloroform/methanol. Total and free cholesterol levels in the aortic extracts were determined with an enzymatic colorimetric assay (Wako Pure Chemical Industries Ltd.). Cross sections were cut at 5 μm thickness and 6 serial sections were collected every 50 μm along the aortic root. Lesion area analysis was made on the cross sections subjected to hematoxylin and eosin (HE) staining. Three representative sections derived from 3 segments were quantified per mouse. Lesion area values from the 3 sections were summed up. Histological features using serial cross sections were subjected to staining for EvG and anti Mac-3 antigen. Clinical biochemistry markers in serum was evaluated using DRICHEM 7000 (FUJIFILM Medical, Japan). Statistical comparison of control and compound 12-treated groups was carried out with a Mann–Whitney test (two-tailed) using GraphPad Prism.
(§3) Data are mean ± SEM. *; P < 0.05, **; P < 0.01 ***; P < 0.001 as compared with the control.

apoE KO mice [2] = assay: Atherosclerosis prevention trial in apoE KO mice; format: in vivo, mouse
Description: (§4) The mutant male mice, apoE KO (B6.129P2-Apoe^tm1Unc/J) and LDLr KO (B6.129S7-Ldlr^tm1Her/J) at the age of 7 weeks, were purchased from Charles River Laboratories, and acclimated to the facility for 7 days. The mice were housed at 25 °C with a 12:12 h light–dark cycle, and food and water were provided ad libitum. The HF/HC diet D12108 containing 1.25% cholesterol and 20% fat was purchased from Research Diets. A selective small molecule FAK inhibitor Compound 12 (Additional file 1: Figure S1; a 2-phenylamino-pyrimidin-4-ylamino-2,3-dihydro-isoindol-1-one derivative) was administrated as food admixture at a concentration of 0.03%. Compound 12 has an IC50 of 6 nM on FAK and no activity on insulin receptor kinase, insulin-like growth factor 1 receptor kinase, cyclin-dependent kinase 1 and Src (Additional file 2: Table S1) as described by Kawahara et al.).
as §1, §2

[3] = Clinical biochemistry markers in serum, intervention trial LDLr KO mice; format: in vivo, mouse; details: Intervention (8 + 8 weeks), mean ± SEM
Source text: as §1, §2, §3

[4] = Clinical biochemistry markers in serum, prevention trial apoE KO mice; format: in vivo, mouse; details: Prevention (8 weeks), mean ± SEM
Source text: as §1, §2, §3

[5] = system: IGF-1R (insulin-like growth factor 1 receptor kinase); details: cited from earlier work
[6] = system: IRK (insulin receptor kinase); details: cited from earlier work
FAK = details: cited from earlier work
[7] = system: CDK1 (cyclin-dependent kinase 1); details: cited from earlier work
apoE KO mice [8] = assay: Atherosclerosis therapeutic intervention trial in apoE KO mice; format: in vivo, mouse
Description: as §4, §1, §2

LDLr KO mice = assay: Atherosclerosis therapeutic intervention trial in LDLr KO mice; format: in vivo, mouse; details: 0.03% food admixture
Description: as §4, §1, §2

c-Src = details: cited from earlier work
[9] = means, radiolabeled ATP, DELFIA or TR-FRET method
[10] = therapeutic intervention, 0.03% food admixture

## COc1ccc(Nc2ncc(Cl)c(Nc3ccc(N4CCC(N5CCN(C)CC5)CC4)c4c3C(=O)N(C)C4)n2)c(OC)c1 [Compound 12, 7-[5-Chloro-2-(2,4-dimethoxy-phenylamino)-pyrimidin-4-ylamino]-2-methyl-4-[4-(4-methyl-piperazin-1-yl)-piperidin-1-yl]-2,3-dihydro-isoindol-1-one]
[1]
  ALB: 2.3 ± 0.04 g/dL
  ALP: 469 ± 37^*** U/L
  ALT: 26 ± 1.3 U/L
  AST: 108 ± 7.0 U/L
  BUN: 42 ± 2.5 mg/dL
  CPK: 227 ± 48 U/L
  CRE: 0.3 ± 0.02^*** mg/dL
  LDH: 590 ± 36^* U/L
  T-BIL: 0.5 ± 0.05 mg/dL
  T-Chol: 1,016 ± 53^* mg/dL
  TG: 93 ± 6.7^** mg/dL
apoE KO mice [2]; 0.03% food admixture
  body weight change: no remarkable changes
  food intake: no remarkable changes
  tolerability: generally well tolerated
apoE KO mice [2]; 8 weeks, 0.03% food admixture
  histological features of atherosclerotic plaques (HE, EvG, anti Mac-3): foam cell rich, reduced fibrous and lipid core regions
apoE KO mice [2]; 8 weeks, 0.03% food admixture with HF/HC diet
  reduction of lesion area of the aorta (en face analysis) vs control: 41.2%
apoE KO mice [2]; 8 weeks, 0.03% food admixture, P < 0.01 vs control
  cholesterol content in aorta: significantly reduced
apoE KO mice [2]; 8 weeks, 0.03% food admixture, P < 0.05 vs control
  lesion area of aortic root (cross-sectional analysis): significantly reduced
apoE KO mice [2]; 8 weeks, 0.03% food admixture, control 8.92%
  lesion area of the aorta (en face analysis, TAOL/AOWA x 100): 5.24%
[3]
  ALB: 2.2 ± 0.05 g/dL
  ALP: 406 ± 34^** U/L
  ALT: 24 ± 1.6^** U/L
  AST: 97 ± 8.0 U/L
  BUN: 32 ± 1.2 mg/dL
  CPK: 196 ± 76^** U/L
  CRE: 0.3 ± 0.02^*** mg/dL
  LDH: 295 ± 38 U/L
  T-BIL: 0.6 ± 0.05 mg/dL
  T-Chol: 714 ± 51^*** mg/dL
  TG: 273 ± 21 mg/dL
[4]
  ALB: 2.2 ± 0.07^* g/dL
  ALP: 554 ± 31^** U/L
  ALT: 25 ± 1.6 U/L
  AST: 115 ± 15 U/L
  BUN: 41 ± 2.5 mg/dL
  CPK: 700 ± 362 U/L
  CRE: 0.3 ± 0.02^*** mg/dL
  Glc: 167 ± 16 mg/dL
  Insulin: 751 ± 109 pg/mL
  LDH: 535 ± 47^** U/L
  T-BIL: 0.5 ± 0.03 mg/dL
  T-Chol: 1,221 ± 102^* mg/dL
  TG: 94 ± 8.4^* mg/dL
[5]
  activity on insulin-like growth factor 1 receptor kinase: no activity
[5]; [9]
  IC50: > 10 µM
[6]
  activity on insulin receptor kinase: no activity
[6]; [9]
  IC50: > 3.3 µM
FAK
  IC50: 0.006 µM
[7]
  activity on cyclin-dependent kinase 1: no activity
[7]; [9]
  IC50: > 10 µM
apoE KO mice [8]; intervention 6 + 6 weeks, 0.03% food admixture
  lesion area of aortic root (cross-sectional analysis): appeared to be reduced
apoE KO mice [8]; intervention 6 + 6 weeks, 0.03% food admixture, P < 0.05 vs control
  cholesterol content in aorta: significantly reduced
apoE KO mice [8]; intervention 6 + 6 weeks, 0.03% food admixture, normalized to Control at 6 weeks, control at 12 weeks 8.03%
  lesion area of the aorta (en face analysis): 4.75%
apoE KO mice [8]; intervention 6 + 6 weeks, 0.03% food admixture, printed in Fig. 2e
  change of lesion area (mm^2) of aortic root vs control: -15%
apoE KO mice [8]; intervention, 6 + 6 weeks, 0.03% food admixture with HF/HC diet
  reduction of lesion area of the aorta (en face analysis) vs control: 40.9%
apoE KO mice [8]; [10]
  body weight change: no remarkable changes
  food intake: no remarkable changes
  tolerability: generally well tolerated
LDLr KO mice; intervention 8 + 8 weeks, P < 0.01 vs control
  cholesterol content in aorta: significantly reduced
LDLr KO mice; intervention 8 + 8 weeks, normalized to Control at 8 weeks, control at 16 weeks 8.51%
  lesion area of the aorta (en face analysis): 5.83%
LDLr KO mice; therapeutic intervention
  body weight change: no remarkable changes
  food intake: no remarkable changes
  tolerability: generally well tolerated
c-Src
  activity on Src: no activity
c-Src; [9]
  IC50: > 10 µM

Source: paper PMC6446301, “Evaluation of therapeutic effects of FAK inhibition in murine models of atherosclerosis” (BMC Research Notes, 2019)
